Measured values from patent US8268848B2, “Cyclopropane compound” (Eisai R&D Management Co., Ltd., priority 2010, dated 2012).
Like-named read-outs stand apart in the source and are kept apart here.

Experiments:
OX2 [1] = target: T1, OX2 (Homo sapiens, UniProt O43614); assay: Measurement of orexin receptor-binding ability ([125I]-OX-A, cell membranes, OX2); parameters: expressed in transfected cells; host or cells: CHO cells (membrane preparation); details: membranes of recombinant CHO cells expressing OX2, 0.2 nM [125I]-OX-A
T1 sequence (O43614 1-444): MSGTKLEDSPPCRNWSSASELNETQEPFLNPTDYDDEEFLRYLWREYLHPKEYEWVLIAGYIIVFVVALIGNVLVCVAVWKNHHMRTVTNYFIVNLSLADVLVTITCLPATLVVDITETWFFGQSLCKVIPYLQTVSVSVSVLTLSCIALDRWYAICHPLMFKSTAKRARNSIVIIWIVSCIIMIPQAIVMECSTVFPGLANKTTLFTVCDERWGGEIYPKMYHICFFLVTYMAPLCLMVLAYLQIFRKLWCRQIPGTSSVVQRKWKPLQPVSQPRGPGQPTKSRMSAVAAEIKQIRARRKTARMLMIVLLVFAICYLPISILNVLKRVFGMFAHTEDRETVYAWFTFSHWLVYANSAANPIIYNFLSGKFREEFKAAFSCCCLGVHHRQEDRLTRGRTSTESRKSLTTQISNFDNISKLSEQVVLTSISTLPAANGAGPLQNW

OX2 [2] = target: T1, OX2; assay: Measurement of antagonism (PLAP assay), OX2; assay type: cell-based; parameters: expressed in transfected cells; host or cells: HEK-293 cells, expression vector pBabeCLIH
Procedure: (§1) 2. Measurement of Antagonism (PLAP Assay)
(§2) The antagonistic function of the compound of the present invention to prevent the activation of OX2 and OX1 by orexin-A (OX-A), which is a natural peptide agonist, was measured using a cell-based reporter assay. […] The cells were plated at a density of 10,000 cells/well onto a non-coated 96-well plate in Dulbecco's modified Eagle medium (Sigma Cat No. D6046:10% v/v heat-inactivated fetal bovine serum was contained). The cells were cultured at 37° C. overnight, so that they could adhere to the plate. On the following day, cells were incubated with a compound of the present invention dissolved in Dulbecco's modified Eagle medium (Sigma Cat No. A8806:0.1% w/v bovine serum albumin was contained), and added to the cell plate to reach a final concentration of 0.1% dimethyl sulfoxide.
(§3) The thus obtained mixture was incubated at room temperature for 1 hour. Thereafter, human OX-A and forskolin were dissolved in the same medium as described above, which contained fetal bovine serum albumin, and the medium was then added to the cells, resulting in a final concentration of 300 nM forskolin. Subsequently, the cells were cultured at 37° C. for approximately 18 to 24 hours.

OX1 [3] = target: T2, OX1 (Homo sapiens, UniProt O43613); assay: Measurement of antagonism (PLAP assay), OX1; assay type: cell-based; parameters: expressed in transfected cells; host or cells: HEK-293 cells, expression vector pBabeCLIH
T2 sequence (O43613 1-425): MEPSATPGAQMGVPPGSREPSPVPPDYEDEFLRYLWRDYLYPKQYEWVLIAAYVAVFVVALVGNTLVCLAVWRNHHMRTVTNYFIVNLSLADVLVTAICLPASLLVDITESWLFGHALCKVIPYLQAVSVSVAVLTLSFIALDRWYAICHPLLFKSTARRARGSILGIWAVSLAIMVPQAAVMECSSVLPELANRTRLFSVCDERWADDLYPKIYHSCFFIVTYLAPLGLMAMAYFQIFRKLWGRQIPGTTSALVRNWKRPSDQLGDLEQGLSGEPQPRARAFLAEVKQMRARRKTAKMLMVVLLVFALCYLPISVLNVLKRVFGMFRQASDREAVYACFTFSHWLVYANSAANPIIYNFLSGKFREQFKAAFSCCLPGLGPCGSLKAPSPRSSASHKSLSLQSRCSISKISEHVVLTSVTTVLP
Procedure: as §1, §2, §3

mice (C57BL/6NCrlCrLj) = assay: Sleep experiment (EEG/EMG) in mice; assay type: in vivo; details: for minimum effective dose (MED): oral, doses 0.3 to 100 mg/kg, accumulated sleep time within three hours after administration
Procedure: As a method for measuring the influence of the present compound on sleep time, electroencephalogram (EEG) and electromyogram (EMG) measurements were carried out in mice (C57BL/6NCrlCrLj).
In order to measure brain waves and muscle signals, EEG and EMG electrode implantation was performed on individual mice, and the mice were then housed in a state in which they could freely move and habituate in individual recording cages for 1 week or longer. Thereafter, amplified EEG and EMG signals were digitally recorded.
Mice received either oral administration of vehicle or test compound in vehicle, after which sleep/wake behavior of mice was recorded for 3 hours.
For sleep analysis, automatic analysis software from Kissei Comtec Co., Ltd. was used to analyze EEG frequency and EMG activity signals in detail and to determine sleep and wake states. Thereafter, accumulated sleeping time over 3 hours was calculated.
The effect of the compound to increase sleep time was evaluated as the difference between sleeping time on the vehicle-administration day and the sleep time on the subsequent drug-administration day.
The minimum effective dose (MED; mg/kg) was obtained from accumulated sleep time of mice with three hours after the administration.

OX1 [4] = target: T2, OX1; assay: Measurement of orexin receptor-binding ability ([125I]-OX-A, cell membranes, OX1); parameters: expressed in transfected cells; host or cells: CHO cells (membrane preparation)
[5] = HEK-293 cells expressing human OX1, 1 nM human OX-A, IC50 converted by Cheng-Prusoff equation, read-out: OX1 (Ki)
[6] = mice, oral administration, difference to vehicle day, 3 hours
[7] = membranes of recombinant CHO cells expressing OX1, 0.2 nM [125I]-OX-A, read-out: OX1 (IC50)
[8] = HEK-293 cells expressing human OX2, 1 nM human OX-A, IC50 converted by Cheng-Prusoff equation, read-out: OX2 (Ki)

| Structure (SMILES) | IC50 (OX2 [1]; OX2 (IC50) nM) [nM] | Ki (OX2 [2]) [nM] | Ki (OX1 [3]; [5]) [nM] | Sleep extended time 10 mg/kg (min/3 hrs) (mice (C57BL/6NCrlCrLj); [6]) | minimum effective dose (MED) (mice (C57BL/6NCrlCrLj); mice) [mg/kg] | IC50 (OX1 [4]; [7]) [nM] | IC50 (OX2 [1]; read-out: OX2 (IC50)) [nM] | Ki (OX2 [2]; [8]) [nM] | Sleep extended time 10 mg/kg (min/3 hrs) (mice (C57BL/6NCrlCrLj); po, 3 h) | Ki (OX1 [3]) [nM] | IC50 (OX1 [4]) [nM] |
| --- | --- | --- | --- | --- | --- | --- | --- | --- | --- | --- | --- |
| Cc1ncc(OC[C@@]2(c3ccccc3)C[C@H]2C(=O)Nc2ccc(F)cn2)c(C)n1 [Example 1, (1R,2S)-2-{[(2,4-dimethylpyrimidin-5-yl)oxy]methyl}-N-(5-fluoropyridin-2-yl)-2-phenylcyclopropanecarboxamide] | 6.8 | 10 | 157 | 18.3 | 30 | 139 |  |  |  |  |  |
| Cc1ncc(OC[C@@]2(c3ccccc3)C[C@H]2C(=O)Nc2ccc(Cl)cn2)c(C)n1 [Example 16, (1R,2S)-N-(5-chloropyridin-2-yl)-2-{[(2,4-dimethylpyrimidin-5-yl)oxy]methyl}-2-phenylcyclopropanecarboxamide] |  |  | 80 |  |  | 40 | 1.9 | 5.4 | 19.0 |  |  |
| Cc1ncc(OC[C@@]2(c3ccccc3)C[C@H]2C(=O)Nc2ccc(F)c(C#N)c2)c(C)n1 [Example 26, (1R,2S)-N-(3-cyano-4-fluorophenyl)-2-{[(2,4-dimethylpyrimidin-5-yl)oxy]methyl}-2-phenylcyclopropanecarboxamide] |  |  | 27 |  |  | 20 | 3.7 | 0.4 |  |  |  |
| Cc1ncc(OC[C@@]2(c3ccccc3)C[C@H]2C(=O)Nc2cc(C)c(Cl)cn2)c(C)n1 [Example 45, (1R,2S)-N-(5-chloro-4-methylpyridin-2-yl)-2-{[(2,4-dimethylpyrimidin-5-yl)oxy]methyl}-2-phenylcyclopropanecarboxamide] |  |  | 19 |  |  | 13.9 | 6.2 | 0.45 | 15.2 |  |  |
| Cc1ncc(OC[C@@]2(c3ccccc3)C[C@H]2C(=O)Nc2cc(C)c(F)cn2)c(C)n1 [Example 51, (1R,2S)-2-{[(2,4-dimethylpyrimidin-5-yl)oxy]methyl}-N-(5-fluoro-4-methylpyridin-2-yl)-2-phenylcyclopropanecarboxamide] | 3.9 | 1.2 |  | 23.6 | 3 |  |  |  |  | 29 | 6.4 |
| COc1cncc(NC(=O)[C@@H]2C[C@@]2(COc2cnc(C)nc2C)c2ccccc2)c1 [Example 61] |  |  | > 667 |  |  | 874 | 16 | 26 |  |  |  |
| Cc1ncc(OC[C@@]2(c3ccccc3)C[C@H]2C(=O)Nc2ccccc2)c(C)n1 [Example 64] |  |  | 133 |  |  | 74 | 15 | 6.3 |  |  |  |
| Cc1ncc(OC[C@@]2(c3ccccc3)C[C@H]2C(=O)Nc2ccccn2)c(C)n1 [Example 65] | 81 | 60 | > 667 |  |  | 1030 |  |  |  |  |  |
| Cc1ncc(OC[C@@]2(c3ccccc3)C[C@H]2C(=O)Nc2cccnc2)c(C)n1 [Example 66] |  |  | > 667 |  |  | 398 | 50 | 34 |  |  |  |
| Cc1ncc(OC[C@@]2(c3ccccc3)C[C@H]2C(=O)Nc2ccncc2)c(C)n1 [Example 67] |  | 57 |  |  |  |  |  |  |  | > 667 |  |
| Cc1ncc(OC[C@@]2(c3cccc(F)c3)C[C@H]2C(=O)Nc2cc(C)c(F)cn2)c(C)n1 [Example 82, (1R,2S)-2-{[(2,4-dimethylpyrimidin-5-yl)oxy]methyl}-N-(5-fluoro-4-methylpyridin-2-yl)-2-(3-fluorophenyl)cyclopropanecarboxamide] | 3.7 | 0.085 | 0.96 | 33.5 |  |  |  |  |  |  | 2.4 |
| Cc1ncc(OC[C@@]2(c3cccc(F)c3)C[C@H]2C(=O)Nc2ccc(F)cn2)c(C)n1 [Example 95, (1R,2S)-2-{[(2,4-dimethylpyrimidin-5-yl)oxy]methyl}-2-(3-fluorophenyl)-N-(5-fluoropyridin-2-yl)cyclopropanecarboxamide] |  |  |  | 39.8 | ≤ 1 |  |  |  |  | 9.9 | 13.4 |
| Cc1ncc(OC[C@@]2(c3ccc(F)cc3)C[C@H]2C(=O)Nc2ccc(F)cn2)c(C)n1 [Example 100, (1R,2S)-2-{[(2,4-dimethylpyrimidin-5-yl)oxy]methyl}-2-(4-fluorophenyl)-N-(5-fluoropyridin-2-yl)cyclopropanecarboxamide] | 7.6 |  | 147 | 23.8 |  |  |  | 9.4 |  |  | 40 |
| CCc1nc(C)ncc1OC[C@@]1(c2ccccc2)C[C@H]1C(=O)Nc1ccc(F)cn1 [Example 119, (1R,2S)-2-{[(4-ethyl-2-methylpyrimidin-5-yl)oxy]methyl}-N-(5-fluoropyridin-2-yl)-2-phenylcyclopropanecarboxamide] | 5.2 |  | 21 | 16.0 |  |  |  | 0.6 |  |  | 21 |
| CCc1nc(C)ncc1OC[C@@]1(c2ccccc2)C[C@H]1C(=O)Nc1ccc(C#N)cn1 [Example 120, (1R,2S)-N-(5-cyanopyridin-2-yl)-2-{[(4-ethyl-2-methylpyrimidin-5-yl)oxy]methyl}-2-phenylcyclopropanecarboxamide] |  |  | 273 |  |  | 123 | 7 | 5.7 | 11.5 |  |  |
| CCc1nc(C)ncc1OC[C@@]1(c2ccccc2)C[C@H]1C(=O)Nc1ccc(Cl)cn1 [Example 121, (1R,2S)-N-(5-chloropyridin-2-yl)-2-{[(4-ethyl-2-methylpyrimidin-5-yl)oxy]methyl}-2-phenylcyclopropanecarboxamide] |  |  | 26 |  |  | 10 | 3.1 | 0.3 | 26.7 |  |  |
| COCc1nc(C)ncc1OC[C@@]1(c2ccccc2)C[C@H]1C(=O)Nc1ccc(Cl)cn1 [Example 139, (1R,2S)-N-(5-chloropyridin-2-yl)-2-{[(4-(methoxymethyl)-2-methylpyrimidin-5-yl)oxy]methyl}-2-phenylcyclopropanecarboxamide] |  |  | 113 |  |  | 22 | 3.3 | 1.7 |  |  |  |
